Read-outs that look alike come from different tables or passages of the source.
Key:
Format in all cases: cell-based
HRV16 = HRV16 HELA EC50 (cytopathic effect in H1-HeLa cells)
In short: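 H1-HeLa cells seeded one day before, given 3-fold serial compound dilutions in triplicate just prior to infection with pre-titrated virus. Incubated 96 h at 33 °C/5% CO2; protection from cytopathic effect read as viability by CellTiter-Glo luminescence, normalised to infected untreated (0%) and uninfected (100%) controls.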

RSV strain A2 = assay: RSV HEp-2 EC50 (infectious cytopathic cell protection assay); details: HEp-2 cells, RSV A2, 4 days, read-out: RSV HEp-2 EC50
In short: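 HEp-2 cells mixed with titered RSV A2 at 50,000 cells/ml were added to plates holding 3-fold serial compound dilutions in DMSO, then incubated 4 days at 37° C. Cytoprotection was read as cell viability by CellTiter-Glo luminescence and converted to percent inhibition against 0% and 100% inhibition controls.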

RSV A2 = assay: RSV NHBE EC50 (RSV A2 antiviral assay in normal human bronchial epithelial cells); details: NHBE cells, RSV A2, 4 days, read-out: RSV NHBE EC50
DENV2 replicon = assay: DENV-2 Huh-7 Rep EC50 (replicon luminescence); details: read-out: DENV-2 Huh-7 Rep EC50
In short: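 Huh-7 cells carrying a DENV2 replicon, 5,000 cells/well, were incubated with dosed compounds for 48 h at 37° C. EnduRen live-cell substrate was added 1.5 h before luminescence reading. EC50 came from dose-response against DMSO-only wells.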

[1] = 96 h, H1-HeLa cells, 33° C., read-out: HRV16 HELA EC50
[2] = human respiratory syncytial virus, HEp-2, 96 h
[3] = human respiratory syncytial virus, NHBE, 96 h
[4] = Dengue virus, DENV2, Huh-7, 48 h, Huh-7 replicon cells, 48 hours
[5] = H1-HeLa cells, 96 h, 33° C.; read-out: HRV16 HELA EC50
[6] = human respiratory syncytial virus, 96 h
[7] = Dengue virus, DENV2, Huh-7, 48 h

Row | Compound | EC50 (HRV16; [1]) | EC50 (RSV strain A2; [2]) | EC50 (RSV A2; [3]) | EC50 (DENV2 replicon; [4]) | EC50 (HRV16; [5]) | EC50 (RSV strain A2; [6]) | EC50 (RSV A2; [6]) | EC50 (DENV2 replicon; [7]) | further results
1 | C[C@H](NP(=O)(OC[C@@]1(C#N)O[C@@H](c2ccc3c(N)ncnn23)[C@H](O)[C@@H]1O)Oc1ccccc1)C(=O)OCC1CCN(CC(F)(F)F)CC1 (stereo partly drawn) [Example 31, (1-(2,2,2-trifluoroethyl)piperidin-4-yl)methyl ((((2R,3S,4R,5S)-5-(4-aminopyrrolo[2,1-f][1,2,4]triazin-7-yl)-2-cyano3,4-dihydroxytetrahydrofuran-2-yl)methoxy)(phenoxy)phosphoryl)alaninate] | 2.5 µM | 0.334 µM | 0.258 µM | 96 µM | – | – | – | – | –
2 | CCN1CCC(OC(=O)[C@H](C)NP(=O)(OC[C@@]2(C#N)O[C@@H](c3ccc4c(N)ncnn34)[C@H](O)[C@@H]2O)Oc2ccccc2)C(F)(F)C1 (stereo partly drawn) [Example 32, 1-ethyl-3,3-difluoropiperidin-4-yl ((((2R,3S,4R,5S)-5-(4-aminopyrrolo[2,1-f][1,2,4]triazin-7-yl)-2-cyano-3,4-dihydroxytetrahydrofuran-2-yl)methoxy)(phenoxy)phosphoryl)-L-alaninate] | 9.95 µM | 3.44 µM | > 3.12 µM | > 100 µM | – | – | – | – | –
3 | C[C@H](NP(=O)(OC[C@@]1(C#N)O[C@@H](c2ccc3c(N)ncnn23)[C@H](O)[C@@H]1O)Oc1ccccc1)C(=O)O[C@H]1CC[C@H](N)CC1 (stereo partly drawn) [Example 33, (1r,4S)-4-aminocyclohexyl ((((2R,3S,4R,5S)-5-(4-aminopyrrolo[2,1-f][1,2,4]triazin-7-yl)-2-cyano-3,4-dihydroxytetrahydrofuran-2-yl)methoxy)(phenoxy)phosphoryl)-L-alaninate] | 27 µM | 1.91 µM | 2.68 µM | > 50 µM | – | – | – | – | –
4 | CC(C)OC(=O)[C@H](C)NP(=O)(N[C@@H](C)C(=O)OC(C)C)OC[C@@]1(C#N)O[C@@H](c2ccc3c(N)ncnn23)[C@H](O)[C@@H]1O [Example 34] | – | – | – | – | > 50 µM | 14 µM | 2.84 µM | > 50 µM | –
5 | CCOC(=O)[C@H](C)NP(=O)(N[C@@H](C)C(=O)OCC)OC[C@@]1(C#N)O[C@@H](c2ccc3c(N)ncnn23)[C@H](O)[C@@H]1O [Example 35, ((2R,3S,4R,5S)-5-(4-aminopyrrolo[2,1-f][1,2,4]triazin-7-yl)-2-cyano-3,4-dihydroxytetrahydrofuran-2-yl)methyl bis-ethyl L-alaninate phosphate] | – | – | – | – | 29.6 µM | 4.07 µM | 1.31 µM | > 50 µM | –
6 | C[C@H](NP(=O)(N[C@@H](C)C(=O)OCC1CCC1)OC[C@@]1(C#N)O[C@@H](c2ccc3c(N)ncnn23)[C@H](O)[C@@H]1O)C(=O)OCC1CCC1 [Example 36, (2R,3S,4R,5S)-5-(4-aminopyrrolo[2,1-f][1,2,4]triazin-7-yl)-2-cyano-3,4-dihydroxytetrahydrofuran-2-yl)methyl bis-cyclobutylmethyl L-alaninate phosphate] | – | – | – | – | 10.7 µM | 1.44 µM | 0.312 µM | > 50 µM | –
7 | COC(=O)[C@H](C)NP(=O)(N[C@@H](C)C(=O)OC)OC[C@@]1(C#N)O[C@@H](c2ccc3c(N)ncnn23)[C@H](O)[C@@H]1O [Example 38] | – | – | – | – | 20.9 µM | 3.51 µM | 3.98 µM | > 50 µM | –
8 | COC(=O)[C@H](C)NP(=O)(OC[C@@]1(C#N)O[C@@H](c2ccc3c(N)ncnn23)[C@H](O)[C@@H]1O)Oc1ccccc1 (stereo partly drawn) [Example 39, methyl ((((2R,3S,4R,5S)-5-(4-aminopyrrolo[2,1-f][1,2,4]triazin-7-yl)-2-cyano-3,4-dihydroxytetrahydrofuran-2-yl)methoxy)(phenoxy)phosphoryl)-L-alaninate] | 1.08 µM | 0.166 µM | 0.569 µM | > 50 µM | – | – | – | – | –
9 | COCCOP(=O)(N[C@@H](C)C(=O)OC(C)C)OC[C@@]1(C#N)O[C@@H](c2ccc3c(N)ncnn23)[C@H](O)[C@@H]1O (stereo partly drawn) [Example 41, isopropyl ((((2R,3S,4R,5S)-5-(4-aminopyrrolo[2,1-f][1,2,4]triazin-7-yl)-2-cyano-3,4-dihydroxytetrahydrofuran-2-yl)methoxy)(2-methoxyethoxy)phosphoryl)-L-alaninate] | – | – | – | – | > 50 µM | > 50 µM | ≥ 5 µM | > 50 µM | –
10 | CC(C)OC(=O)[C@H](C)NP(=O)(OCCS(C)(=O)=O)OC[C@@]1(C#N)O[C@@H](c2ccc3c(N)ncnn23)[C@H](O)[C@@H]1O (stereo partly drawn) [Example 42, isopropyl ((((2R,3S,4R,5S)-5-(4-aminopyrrolo[2,1-f][1,2,4]triazin-7-yl)-2-cyano-3,4-dihydroxytetrahydrofuran-2-yl)methoxy)(2-(methylsulfonyl)ethoxy)phosphoryl)-L-alaninate] | – | – | – | – | > 50 µM | 25.4 µM | ≥ 5 µM | 39.2 µM | –
11 | CCCOC(=O)[C@H](C)N[P@](=O)(OC[C@@]1(C#N)O[C@@H](c2ccc3c(N)ncnn23)[C@H](O)[C@@H]1O)Oc1ccccc1 [Example 45, propyl ((S)-(((2R,3S,4R,5S)-5-(4-aminopyrrolo[2,1-f][1,2,4]triazin-7-yl)-2-cyano-3,4-dihydroxytetrahydrofuran-2-yl)methoxy)(phenoxy)phosphoryl)-L-alaninate] | 0.375 µM | 0.055 µM | 0.248 µM | 9.66 µM | – | – | – | – | –
12 | C[C@H](NP(=O)(OC[C@@]1(C#N)O[C@@H](c2ccc3c(N)ncnn23)[C@H](O)[C@@H]1O)Oc1ccccc1)C(=O)OCC1COC1 (stereo partly drawn) [Example 49, oxetan-3-ylmethyl ((((2R,3S,4R,5S)-5-(4-aminopyrrolo[2,1-f][1,2,4]triazin-7-yl)-2-cyano-3,4-dihydroxytetrahydrofuran-2-yl)methoxy)(phenoxy)phosphoryl)-L-alaninate] | 8.72 µM | 1.08 µM | 2.43 µM | > 50 µM | – | – | – | – | –
13 | C[C@H](NP(=O)(OC[C@@]1(C#N)O[C@@H](c2ccc3c(N)ncnn23)[C@H](O)[C@@H]1O)Oc1ccccc1)C(=O)OC1CCC1 (stereo partly drawn) [Example 51] | – | – | – | – | 0.357 µM | – | – | – | EC50 (RSV strain A2): 0.09 µM; EC50 (RSV A2): > 1.24 µM; EC50 (DENV2 replicon; Huh-7 replicon cells, 48 hours): 9.21 µM
14 | COCCOc1ccc(OP(=O)(N[C@@H](C)C(=O)OC(C)C)OC[C@@]2(C#N)O[C@@H](c3ccc4c(N)ncnn34)[C@H](O)[C@@H]2O)cc1 (stereo partly drawn) [Example 53] | 15.5 µM | 2.36 µM | – | > 50 µM | – | – | – | – | EC50 (RSV A2; human respiratory syncytial virus, NHBE, in Homo sapiens, 96 h): ≥ 5 µM
15 | C[C@H](NP(=O)(OC[C@@]1(C#N)O[C@@H](c2ccc3c(N)ncnn23)[C@H](O)[C@@H]1O)Oc1ccccc1)C(=O)OC1CCOCC1 (stereo partly drawn) [Example 55, tetrahydro-2H-pyran-4-yl ((((2R,3S,4R,5S)-5-(4-aminopyrrolo[2,1-f][1,2,4]triazin-7-yl)-2-cyano-3,4-dihydroxytetrahydrofuran-2-yl)methoxy)(phenoxy)phosphoryl)-L-alaninate] | 6.91 µM | 0.57 µM | 4.29 µM | > 50 µM | – | – | – | – | –
16 | CCC(CC)COC(=O)[C@H](CCCCNC(=O)OCc1ccccc1)NP(=O)(OC[C@@]1(C#N)O[C@@H](c2ccc3c(N)ncnn23)[C@H](O)[C@@H]1O)Oc1ccccc1 (stereo partly drawn) [Example 79, 2-ethylbutyl N2-((((2R,3S,4R,5S)-5-(4-aminopyrrolo[2,1-f][1,2,4]triazin-7-yl)-2-cyano-3,4-dihydroxytetrahydrofuran-2-yl)methoxy)(phenoxy)phosphoryl)-N6-((benzyloxy)carbonyl)-L-lysinate] | > 34.8 µM | > 50 µM | > 5 µM | 40.2 µM | – | – | – | – | –
17 | CC(C)OC(=O)[C@H](Cc1ccccc1)NP(=O)(OC[C@@]1(C#N)O[C@@H](c2ccc3c(N)ncnn23)[C@H](O)[C@@H]1O)Oc1ccccc1 (stereo partly drawn) [Example 80, (2S)-isopropyl 2-(((((2R,3S,4R,5S)-5-(4-aminopyrrolo[2,1-f][1,2,4]triazin-7-yl)-2-cyano-3,4-dihydroxytetrahydrofuran-2-yl)methoxy)(phenoxy)phosphoryl)amino)-3-phenylpropanoate] | 8.96 µM | 3.83 µM | 4.7 µM | > 50 µM | – | – | – | – | –
18 | CCC(CC)COC(=O)[C@H](Cc1ccccc1)NP(=O)(OC[C@@]1(C#N)O[C@@H](c2ccc3c(N)ncnn23)[C@H](O)[C@@H]1O)Oc1ccccc1 (stereo partly drawn) [Example 81, (2S)-2-ethylbutyl 2-(((((2R,3S,4R,5S)-5-(4-aminopyrrolo[2,1-f][1,2,4]triazin-7-yl)-2-cyano-3,4-dihydroxytetrahydrofuran-2-yl)methoxy)(phenoxy)phosphoryl)amino)-3-phenylpropanoate] | 3.37 µM | 3.57 µM | 2.65 µM | 38.9 µM | – | – | – | – | –

From patent publication US20230295201A1 (Gilead Sciences, Inc., priority 2020, published 2023)
